In assay [1] the target is TANK-2 enzyme (Homo sapiens (Human), UniProt Q9H2K2). Nature of the assay: In vitro Scintillation Proximity Assay (SPA) for TANK-2 inhibitory activity. The format is biochemical. The following applies: auto-poly(ADP-ribosyl)ation, [3H]-NAD+, Ni flash plates (96 or 384 well). The protocol: C.2.In Vitro Scintillation Proximity Assay (SPA) for TANK-2 Inhibitory Activity
Compounds of the present invention were tested in an in vitro assay based on SPA technology with Ni Flash plates (96 or 384 well).
In principle, the assay relies upon SPA technology for the detection of auto-poly(ADP-ribosyl)ation of TANK-2 protein using [^3H]-nicotinamide adenine dinucleotide ([^3H]-NAD^+) as ADP-ribosyl donor.
A stock solution of 100 nM [^3H]-NAD^+/NAD (0.1 mCi/ml, supplier: Perkin Elmer) and 25 μM NAD (Sigma) was made in assay buffer (60 mM Tris/HCl, pH 7.4; 0.9 mM DTT; 6 mM MgCl2). The TANK-2 enzyme was produced as described in EP1238063. 60 μl of assay buffer, together with 1 μl of compound in DMSO, 20 μl of [^3H]-NAD^+/NAD and 20 μl of TANK-2 enzyme (final concentration 8 μg/ml) was added per well into a 96-well Ni-coated flash plate (Perkin Elmer). After incubation of the mixture for 120 minutes at room temperature, the reaction was terminated by adding 60 μl of stopsolution (42.6 mg NAD in 6 ml H2O). The plates were covered with a plate sealer and placed in a TopCountNXT™ (Packard) for scintillation counting. Values were expressed as counts per minute (cpm). For each experiment, controls (containing TANK-2 enzyme and DMSO without compound), a blank incubation (containing DMSO but no TANK-2 enzyme or compound) and samples (containing TANK-2 enzyme and compound dissolved in DMSO) were run in parallel. All compounds tested were dissolved and eventually further diluted in DMSO. In first instance, compounds were tested at a concentration of 10^−5M. […] In each test, the blank value was subtracted from both the control and the sample values. The control sample represented maximal TANK-2 enzyme activity. For each sample, the amount of cpm was expressed as a percentage of the mean cpm value of the controls. […] Herein the effects of test compounds are expressed as pIC50 (the negative log value of the IC50-value). As reference compounds, 3-aminobenzamide and 4-amino-1,8-naphtalimide were included to validate the SPA assay. Herein the assay was described using 96-well plates. In the assay using 384-well plates the same final concentrations were used and volumes were adapted.

For assay [2], the system named is tubulin. The experiment in a line: Tubulin polymerization assay. The format is biochemical. Particulars: inhibition of polymerization at 20 μM and 5 μM. The protocol:
Example C.5 Polymerization Assay
The tubulin polymerization assay is an adaptation of an assay originally described by Bonne, D. et al. (J. Biol. Chem., 1985, 260:2819-25). The assay kit was purchased from Cytoskeleton, Inc. (catalogue number BK011) and the assay was performed as described by the supplier with the following modifications. The assay was run in a 384-well black Proxiplate (Perkin Elmer) and volumes were adapted accordingly. The reactions were carried out in a final volume of 10 μl. Compounds were added to 25 μl of the reaction mix in 96-well PP plates (Corning) on ice and 10 μl of this mixture was dispensed into duplicates of the 384-well Proxiplates pre-warmed to 37° C. in a Fluoroskan Ascent plate reader (Thermo Scientific). Fluorescence measurements were taken every minute for one hour. The maximum slope of each well was determined (linear regression through 4 consecutive points) and polymerization was calculated as a percentage of polymerization observed in the absence of compound.

In assay [3] the test system is human prostate cancer PC3 cells. The experiment in a line: Eb1 Comet (microtubule disruption) assay. The format is cell-based. Particulars: 1 hour treatment, LAC = concentration where Eb1 foci absent in at least 50% of treated cells. From the text: Example C.6 Eb1 Comet (Microtubule Disruption) Assay
The Eb1 Comet assay relies on the detection of the Eb1 protein at the plus end of polymerizing microtubules (Mimori-Kiyosue, 2000) using indirect immunofluorescence. Disruption of microtubule dynamics through de-polymerization or stabilization results in a de-localization of Eb1 from the growing microtubule ends and this is visualized by the disappearance of Eb1 containing cytoplasmic foci.
Briefly, human prostate cancer PC3 cells obtained from the American Type Culture Collection were grown in 96-well plates (Greiner, cat. no. 655090) in HAM's F12 medium as recommended by the provider (ATCC). The cells were treated for 1 hour at 37° C. with compounds dissolved in DMSO (0.6% final DMSO concentration). The culture medium was then removed by aspiration and the cells were fixed by adding cold methanol (−20 C). After a 15 minutes incubation at −20° C., the cells were washed twice with DPBS (Gibco) containing 0.5% Triton X-100. Mouse Eb1 antibody (BD Transduction Laboratories, cat. no. 610534) was added to the cells (1/250 dilution in DPBS containing 1% BSA) and incubated overnight at room temperature. The antibody was subsequently removed and the cells washed twice with DPBS, 0.5% Triton X-100. Secondary goat anti-mouse antibody conjugated to Alexa 488 fluorescent dye (Molecular Probes) was added at a 1/500 dilution in DPBS, 1% BSA and incubated for 1 hour at 37° C. The cells were washed twice with DPBS, 0.5% Triton X-100 and then DPBS containing 0.5% Triton X-100 and 1/5000 Hoechst 33342 (Molecular Probes) was added. Microscopy based Eb1 foci visualization was carried out using an IN Cell Analyser 1000 (Amersham Biosciences) using a 20× objective. Compound dependent microtubule disruption was visually determined by the disappearance in Eb1 foci. The lowest active concentration (LAC) was determined as the concentration where Eb1 foci were absent in at least 50% of the treated cells. Herein the effects of tested compounds are expressed as pLAC (the negative log value of the LAC value) (see Table 3).

The test system of assay [4] is Human colon carcinoma HCT116 cells. The experiment in a line: Detection of antiproliferative activity (Alamar Blue assay). It is filed as cell-based. The following applies: HCT-116, 96 h, 4-day incubation, read-out: Cellular assay HCT116 pIC50 (converted). As for the experimental part:
Example C.4 Detection of Antiproliferative Activity
Human colon carcinoma HCT116 cells obtained from the ATCC were cultured in McCoy's 5A medium supplemented with 2 mM L-Glutamine, 50 μg/ml gentamicin and 10% heat inactivated fetal calf serum.
Reagents used in the Alamar Blue Assay
Resazurin was purchased from Aldrich (Prod. No. 199303). Potassium ferrocyanide, potassium ferricyanide, KH2PO4 and K2HPO4 were purchased from Sigma (Prod. Nos. P9387, P8131, P5655 and P8281, respectively).
Potassium Phosphate Buffer 0.1 M (PPB) was made as follows: 2.72 gram KH2PO4 and 13.86 gram K2HPO4 were dissolved in 500 ml milli-Q H2O, the pH was adjusted to pH 7.4 and the volume was brought to 1 liter with milli-Q H2O; the buffer was filter sterilised and stored at room temperature. Resazurin stock solution (PPB-A) was prepared fresh by dissolving 45 mg resazurin in 15 ml PBS. 30 mM potassium ferricyanide (PPB-B) was prepared by dissolving 0.987 gram potassium ferricyanide in 100 ml PPB. 30 mM potassium ferrocyanide (PPB-C) was prepared by dissolving 1.266 gram potassium ferrocyanide in 100 ml PPB.
Mixture of PPB-A, PPB-B and PPB-C was prepared by mixing equal volumes of the respective solutions. Resazurin work solution (herein termed “Alamar Blue” solution) was prepared by diluting said mixture 20× (vol/vol) in PPB and filter sterilising; the Alamar Blue solution could be kept at 4° C. for a maximum of 2 weeks.
Procedure of the Alamar Blue Assay
For experiments in 384 wells plates the cells were seeded at a density of 4.5×10^3 cells/ml in Falcon 384-well culture plates (Life Technologies, Merelbeke, Belgium), black with clear bottom, in 45 μl culture medium. Cells were allowed to adhere to plastic for 24 hours. The tested compound was pre-diluted (1/50 in culture medium) and 5 μl pre-diluted compound was added to the wells. Following 4-day incubation, 10 μl of the Alamar Blue solution was added to each well and the cells were further incubated for 4 hours (HCT116) or 24 hours (PC-3) at 37° C. The fluorescence intensity was measured for each well on a Fluorescence plate reader (Fluorskan, Labsystems, 540 nm excitation and 590 nm emission)
The antiproliferative activity was calculated as percentage of remaining viable cells in treated versus control (untreated cells) conditions. Within an experiment, the result for each experimental condition is the mean of 3 replicate wells. When appropriate, the experiments were repeated to establish full concentration-response curves. […] Herein the effects of tested compounds are expressed as pIC50 (the negative log value of the IC50 value) (see Table 3).

Sequence of TANK-2 enzyme (Q9H2K2 whole entry): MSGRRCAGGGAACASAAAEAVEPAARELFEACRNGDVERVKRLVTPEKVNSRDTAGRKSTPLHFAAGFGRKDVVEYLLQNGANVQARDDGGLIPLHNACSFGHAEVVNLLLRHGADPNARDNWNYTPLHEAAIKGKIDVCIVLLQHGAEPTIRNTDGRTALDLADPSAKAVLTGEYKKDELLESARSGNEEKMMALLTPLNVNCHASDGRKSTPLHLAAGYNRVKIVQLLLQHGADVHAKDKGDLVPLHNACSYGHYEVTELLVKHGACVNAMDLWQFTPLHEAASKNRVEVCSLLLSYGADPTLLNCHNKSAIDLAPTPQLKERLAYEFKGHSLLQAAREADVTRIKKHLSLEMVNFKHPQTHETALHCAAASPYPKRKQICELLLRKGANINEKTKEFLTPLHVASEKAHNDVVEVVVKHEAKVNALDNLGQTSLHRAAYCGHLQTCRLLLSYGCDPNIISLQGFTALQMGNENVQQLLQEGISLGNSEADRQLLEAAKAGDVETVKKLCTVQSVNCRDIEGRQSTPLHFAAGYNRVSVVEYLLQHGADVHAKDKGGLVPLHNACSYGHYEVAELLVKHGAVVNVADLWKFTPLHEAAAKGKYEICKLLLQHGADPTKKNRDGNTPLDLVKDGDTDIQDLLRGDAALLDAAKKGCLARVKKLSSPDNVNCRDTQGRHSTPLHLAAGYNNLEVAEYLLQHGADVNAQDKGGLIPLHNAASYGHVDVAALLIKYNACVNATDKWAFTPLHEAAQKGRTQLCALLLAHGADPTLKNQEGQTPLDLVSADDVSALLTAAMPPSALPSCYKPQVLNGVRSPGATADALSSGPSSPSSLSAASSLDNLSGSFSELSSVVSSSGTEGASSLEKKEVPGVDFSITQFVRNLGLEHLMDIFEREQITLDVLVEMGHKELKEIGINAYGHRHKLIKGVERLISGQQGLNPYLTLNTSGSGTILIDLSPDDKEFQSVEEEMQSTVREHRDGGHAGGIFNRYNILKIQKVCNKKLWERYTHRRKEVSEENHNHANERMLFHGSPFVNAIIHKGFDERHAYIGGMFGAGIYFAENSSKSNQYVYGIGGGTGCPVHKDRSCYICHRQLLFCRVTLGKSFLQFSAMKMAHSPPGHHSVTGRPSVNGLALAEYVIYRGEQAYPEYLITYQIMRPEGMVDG

As for `COc1cc(OC)nc(CC(C)(C#N)c2ccc3c4c(c(=O)[nH]c3c2)CCCC4)n1` (stereo not shown) [Co. No. 6], the “in vitro SPA assay TANK-2 pIC50” value in assay [1] is 7.72. In addition, the “Assay Tubulin Polymerization score” value in assay [2] is given as 3 (a compound showing more than 50% inhibition at 5 μM is reported as score 3). Further, in assay [3], the “Cellular assay Eb1 pLAC” value is given as 8. In assay [4], the IC50 was 57.5 nM.

These data come from patent US9598396B2, “Tetrahydrophenanthridinones and tetrahydrocyclopentaquinolinones as PARP and tubulin polymerization inhibitors” (Janssen Pharmaceutica NV, priority 2008, dated 2017).
